Assay results as given in patent US11241436B2, “Autophagy inducers for treatment of CNS conditions” (Northwestern University, priority 2017, dated 2022).

Test system: LC3
Test: Promega Autophagy Assay System (HiBiT-tagged LC3 reporter, autophagy flux)
Assay type: cell-based
Details: LC3 reporter signal; decrease = increased autophagy
Source text: The Promega Augophagy Assay System uses LC3 to monitor the autophagy process. […] LgBiT is a […] recombinant protein derived from NanoLuc. When HiBiT associates with LgBiT, a strong luciferase activity is reconstituted. An increase in autophagy will accelerate the degradation of LC3 reporter which decreases the assay signal. In contrast, inhibition of autophagy causes the accumulation of LC3 which will increase the reporter levels and assay signal.

Row | Structure (SMILES) | AC50 [µM]
1 | COCCn1cnc2c(c(-c3ccccc3)c(-c3ccccc3)n2CCc2ccccc2)c1=N | 20.6
2 | N=c1c2c(-c3ccccc3)c(-c3ccccc3)n(CCc3ccccc3)c2ncn1CC1CCOCC1 | 10.3
3 | N=c1c2c(-c3ccccc3)c(-c3ccccc3)n(Cc3ccccc3)c2ncn1CC1CCOCC1 | 10.3
4 | N=c1c2c(-c3ccccc3)c(-c3ccccc3)n(CCc3ccccc3)c2ncn1[C@H]1CC[C@H](O)CC1 | 1.16
5 | N=c1c2c(-c3ccccc3)c(-c3ccccc3)n(Cc3ccccc3)c2ncn1CCCCCO | 10.3
6 | N=c1c2c(-c3ccccc3)c(-c3ccccc3)n(CCc3ccccc3)c2ncn1CCC1CCC(O)CC1 (stereo not drawn) | 3.66
7 | COc1ccc(-c2c(-c3ccc(OC)cc3)n(Cc3ccccc3)c3ncn(CC4CCOCC4)c(=N)c23)cc1 | 20.6
8 | COC(=O)c1cccc(Cn2cnc3c(c(-c4ccccc4)c(-c4ccccc4)n3CCc3ccccc3)c2=N)c1 | 13
9 | N=c1c2c(-c3ccccc3)c(-c3ccccc3)n(Cc3ccccc3)c2ncn1[C@H]1CC[C@H](CO)CC1 | 9.2
10 | COc1ccc(-c2c(-c3ccc(OC)cc3)n(Cc3ccccc3)c3ncn([C@@H]4CCCC[C@H]4CO)c(=N)c23)cc1 | 20.6
11 | N=c1c2c(-c3ccccc3)c(-c3ccccc3)n(Cc3ccccc3)c2ncn1CC1CCOC1 (stereo not drawn) | 20.6
12 | N=c1c2c(-c3ccccc3)c(-c3ccccc3)n(CC3CCCCC3)c2ncn1[C@H]1CC[C@H](O)CC1 | 16.4
13 | N=c1c2c(-c3ccccc3)c(-c3ccccc3)n(CC3CC3)c2ncn1CC1CCOCC1 | 20.6
14 | COc1ccc(Cn2c(-c3ccccc3)c(-c3ccccc3)c3c(=N)n([C@H](C)[C@@H](O)c4ccccc4)cnc32)cc1 | 20.6
15 | CN(C)CCn1cnc2c(c(-c3ccccc3)c(-c3ccccc3)n2CCc2ccccc2)c1=N | 5.17
16 | N=c1c2c3c(n(CCc4ccccc4)c2ncn1C1CCOCC1)CCCC3 | 7.31
17 | N=c1c2c(-c3ccccc3)c(-c3ccccc3)n(CC3CCCCC3)c2ncn1C1CCOCC1 | 10.3
18 | N=c1c2c(-c3ccccc3)c(-c3ccccc3)n(Cc3ccccc3)c2ncn1CCC1CCC(O)CC1 (stereo not drawn) | 1.84
19 | N=c1c2c(-c3ccccc3)cn(Cc3ccc(Br)cc3)c2ncn1CCCN1CCN(c2ccccc2)CC1 | 16.4
20 | N=c1c2c(-c3ccccc3)cn(Cc3ccccc3)c2ncn1C(CO)(CO)CO | 29.1
21 | Cc1ccc(-c2c(C(=O)CCl)n(CCCO)c3ncnc(N)c23)cc1 | 23.1
22 | COc1ccc(Cn2c(-c3ccccc3)c(-c3ccccc3)c3c(=N)n(N4CCOCC4)cnc32)cc1 | 20.6

Row | Structure (SMILES) | AC50 [µM]
23 | COc1ccc(Cn2c(-c3ccccc3)c(-c3ccccc3)c3c(=N)n(CCO)cnc32)cc1 | 2.59
24 | Cc1ccc(-c2c(C(=O)CF)n(CCCO)c3ncnc(N)c23)cc1 | 20.6
25 | N=c1c2c(-c3ccc4c(c3)OCO4)c(-c3ccc4c(c3)OCO4)n(Cc3ccccc3)c2ncn1C1CCOCC1 | 18.4
26 | COc1ccc(Cn2c(-c3ccccc3)c(-c3ccccc3)c3c(=N)n(CCCO)cnc32)cc1 | 5.17
27 | COc1ccc(-c2c(-c3ccc(OC)cc3)n(Cc3ccccc3)c3ncn(CCCO)c(=N)c23)cc1 | 20.6
28 | COc1ccc(CCn2cnc3c(c(-c4ccccc4)cn3Cc3ccccc3)c2=N)cc1OC | 16.4
29 | N=c1c2c(-c3ccccc3)c(-c3ccccc3)n(Cc3ccccc3)c2ncn1CC1COC1 | 8.2
30 | COc1ccc(Cn2c(-c3ccccc3)c(-c3ccccc3)c3c(=N)n(CC(OC)OC)cnc32)cc1 | 16.4
31 | N=c1c2c(-c3ccccc3)c(-c3ccccc3)n(Cc3ccccc3)c2ncn1CCCCO | 11.6
32 | CN(C)CCCn1cnc2c(c(-c3ccccc3)c(-c3ccccc3)n2Cc2ccccc2)c1=N | 29.1
33 | N=c1c2c(-c3ccccc3)c(-c3ccccc3)n(Cc3ccccc3)c2ncn1CCO | 5.8
34 | N=c1c2c(-c3ccccc3)c(-c3ccccc3)n(Cc3ccccc3)c2ncn1C1CCN(Cc2ccccc2)CC1 | 29.1
35 | CN(C)CCn1cnc2c(c(-c3ccccc3)c(-c3ccccc3)n2Cc2ccccc2)c1=N | 10.3
36 | N=c1c2c(-c3ccccc3)c(-c3ccccc3)n(Cc3ccc(OC(F)(F)F)cc3)c2ncn1[C@H]1CC[C@H](O)CC1 | 2.59
37 | CO[C@H]1CC[C@H](n2cnc3c(c(-c4ccccc4)c(-c4ccccc4)n3Cc3ccccc3)c2=N)CC1 | 2.91
38 | N=c1c2c(-c3ccccc3)c(-c3ccccc3)n(CC3CC3)c2ncn1C1CCOCC1 | 7.31
39 | N=c1c2c(-c3ccccc3)c(-c3ccccc3)n(CCc3ccccc3)c2ncn1CCCCCO | 13
40 | CN(C)CCCn1cnc2c(c(-c3ccccc3)c(-c3ccccc3)n2CCc2ccccc2)c1=N | 32.6
41 | N=c1c2c(-c3ccccc3)c(-c3ccccc3)n(CCc3ccccc3)c2ncn1C[C@@H]1CCCC[C@H]1O | 18.4
42 | CCOC(CCCn1cnc2c(c(-c3ccccc3)c(-c3ccccc3)n2Cc2ccccc2)c1=N)OCC | 20.6
43 | COc1ccc(Cn2c(-c3ccccc3)c(-c3ccccc3)c3c(=N)n(CC4CCOCC4)cnc32)cc1 | 9.2
44 | CCOC(CCCn1cnc2c(c(-c3ccccc3)c(-c3ccccc3)n2Cc2ccc(OC)cc2)c1=N)OCC | 20.6

Row | Structure (SMILES) | AC50 [µM]
45 | COC1CCC(n2cnc3c(c(-c4ccccc4)c(-c4ccccc4)n3Cc3ccc(OC(F)(F)F)cc3)c2=N)CC1 (stereo not drawn) | 2.91
46 | N=c1c2c(-c3ccccc3)cn(Cc3ccccc3)c2ncn1CCCN1CCN(c2ccccc2)CC1 | 23.1
47 | COc1ccc(Cn2c(-c3ccccc3)c(-c3ccccc3)c3c(=N)n([C@H]4CC[C@H](O)CC4)cnc32)cc1 | 1.64
48 | N=c1c2c(-c3ccccc3)c(-c3ccccc3)n(Cc3ccccc3)c2ncn1C[C@@H]1CCCC[C@H]1O | 13
49 | N=c1c2c(-c3ccccc3)c(-c3ccccc3)n(CCc3ccccc3)c2ncn1CCO | 4.61
50 | COc1ccc(CCn2cnc3c(c(-c4ccccc4)c(-c4ccccc4)n3Cc3ccccc3)c2=N)cc1OC | 23.1
51 | CO[C@H]1CC[C@H](n2cnc3c(c(-c4ccccc4)c(-c4ccccc4)n3CCc3ccccc3)c2=N)CC1 | 3.66
52 | N=c1c2c(-c3ccccc3)c(-c3ccccc3)n(Cc3ccccc3)c2ncn1[C@@H]1CCCC[C@H]1O | 3.26
53 | N=c1c2c(-c3ccccc3)c(-c3ccccc3)n(Cc3ccccc3)c2ncn1C1CCC(O)CC1 (stereo not drawn) | 2.91
54 | N=c1c2c(-c3ccccc3)c(-c3ccccc3)n(Cc3ccc(OC(F)(F)F)cc3)c2ncn1CC1CCOCC1 | 9.2
55 | N=c1c2c(-c3ccccc3)c(-c3ccccc3)n(CC3CCCCC3)c2ncn1CC1CCOCC1 | 14.6
56 | N=c1c2c(-c3ccccc3)c(-c3ccccc3)n(Cc3ccccc3)c2ncn1[C@H](CO)Cc1ccccc1 | 23.1
57 | COc1ccc(Cn2c(-c3ccccc3)c(-c3ccccc3)c3c(=N)n(CC4CCCO4)cnc32)cc1 (stereo not drawn) | 20.6
58 | N=c1c2c(-c3ccccc3)c(-c3ccccc3)n(Cc3ccccc3)c2ncn1CCNc1ccncc1 | 20.6
59 | N=c1c2c(-c3ccccc3)c(-c3ccccc3)n(CCc3ccccc3)c2ncn1CC1CCCO1 (stereo not drawn) | 23.1
60 | N=c1c2c(-c3ccccc3)c(-c3ccccc3)n(CCc3ccccc3)c2ncn1CCCO | 4.61
61 | N=c1c2c(-c3ccccc3)c(-c3ccccc3)n(CCc3ccccc3)c2ncn1CC1CCOC1 (stereo not drawn) | 9.2
62 | N=c1c2c(-c3ccccc3)c(-c3ccccc3)n(Cc3ccc(OC(F)(F)F)cc3)c2ncn1C1CCOCC1 | 9.2
63 | COCCn1cnc2c(c(-c3ccccc3)cn2Cc2ccccc2)c1=N | 11.6
64 | COC(Cn1cnc2c(c(-c3ccccc3)c(-c3ccccc3)n2CCc2ccccc2)c1=N)OC | 23.1
65 | N=c1c2c(-c3ccccc3)c(-c3ccccc3)n(CCc3ccccc3)c2ncn1[C@H](CO)Cc1ccccc1 | 20.6
66 | N=c1c2c(-c3ccccc3)cn(Cc3ccccc3)c2ncn1C1CCC(O)CC1 (stereo not drawn) | 16.4

Row | Structure (SMILES) | AC50 [µM]
67 | COCCn1cnc2c(c(-c3ccccc3)c(-c3ccccc3)n2Cc2ccccc2)c1=N | 13
68 | COc1ccc(Cn2c(-c3ccccc3)c(-c3ccccc3)c3c(=N)n(CCCCO)cnc32)cc1 | 10.3
69 | N=c1c2c(-c3ccccc3)c(-c3ccccc3)n(CC3CCCCC3)c2ncn1C[C@H]1CCCC[C@@H]1O | 0.366
70 | N=c1c2c(-c3ccccc3)c(-c3ccccc3)n(Cc3ccccc3)c2ncn1CCCN1CCN(c2ccccc2)CC1 | 29.1
71 | N=c1c2c(-c3ccccc3)c(-c3ccccc3)n(Cc3ccccc3)c2ncn1CC1CCCO1 (stereo not drawn) | 14.6
72 | N=c1c2c3c(n(CCc4ccccc4)c2ncn1CCCO)CCCC3 | 18.4
73 | CC[Si](CC)(CC)OCCCn1cnc2c(c(-c3ccccc3)cn2Cc2ccc(Br)cc2)c1=N | 13
74 | N=c1c2c(-c3ccccc3)cn(Cc3ccccc3)c2ncn1Cc1ccco1 | 16.4
75 | N=c1c2c(-c3ccccc3)c(-c3ccccc3)n(Cc3ccc(OC(F)(F)F)cc3)c2ncn1CCCO | 9.2
76 | COC(Cn1cnc2c(c(-c3ccccc3)c(-c3ccccc3)n2Cc2ccccc2)c1=N)OC | 0.231
77 | CCOC(CCCn1cnc2c(c(-c3ccccc3)c(-c3ccccc3)n2CCc2ccccc2)c1=N)OCC | 13
78 | N=c1c2c(-c3ccccc3)c(-c3ccccc3)n(Cc3ccccc3)c2ncn1C1CCOCC1 | 2.31
79 | N=c1c2c(-c3ccccc3)cn(Cc3ccc(Br)cc3)c2ncn1CCCCO | 25.9
80 | COc1ccc(Cn2c(-c3ccccc3)c(-c3ccccc3)c3c(=N)n(C4CCOCC4)cnc32)cc1 | 2.59
81 | N=c1c2c(-c3ccccc3)c(-c3ccccc3)n(CCc3ccccc3)c2ncn1CCCCO | 10.3
82 | C[C@H]([C@@H](O)c1ccccc1)n1cnc2c(c(-c3ccccc3)c(-c3ccccc3)n2Cc2ccccc2)c1=N | 29.1
83 | N=c1c2c(-c3ccccc3)cn(Cc3ccccc3)c2ncn1[C@@H]1CCCC[C@H]1N | 14.6
84 | N=c1c2c(-c3ccccc3)c(-c3ccccc3)n(Cc3ccccc3)c2ncn1CCN | 13
85 | COc1ccc(-c2c(-c3ccc(OC)cc3)n(Cc3ccccc3)c3ncn(C4CCOCC4)c(=N)c23)cc1 | 23.1
86 | COCCn1cnc2c(c(-c3ccccc3)c(-c3ccccc3)n2Cc2ccc(OC)cc2)c1=N | 23.1
87 | COc1ccc(-c2c(-c3ccc(OC)cc3)n(Cc3ccccc3)c3ncn([C@H]4CC[C@H](OC)CC4)c(=N)c23)cc1 | 13
